Patent US5288872A, “Compounds for treatment of neurodegenerative diseases” (priority 1992, dated 1994)

Key:
nicotinic receptors = experiment: Inhibition of L-[^3 H] nicotine binding to mouse brain membrane preparations; design: species or system mouse (DBA strain); settings: mouse brain membranes, 2 hr. incubation at 4° C., pH 7.5, racemic mixture of ligand
Procedure: Mice (DBA strain) were maintained on a 12 hour light/dark cycle and were allowed free access to water and food supplied by Wayne Lab Blox, Madison, Wis. Animals used in the present studies were 60 to 90 days of age and weighed 20 to 25 g. Brain membrane preparations were obtained from pooled brain tissue of both males and females.
Mice were killed by cervical dislocation. Brains were removed and placed on an ice-cold platform. […] Protein was determined by the method of Lowry, et al., J. Biol. Chem., Vol. 193, pp. 265-275 (1951), using bovine serum albumin as the standard.
The binding of L-[^3 H] nicotine was measured using a modification of the method of Romano, et al., Science, Vol. 210, pp. 647-650 (1980) as described previously by Marks, et al., Mol. Pharmacol., Vol. 30, pp. 427-436 (1986). The binding of L-[^3 H] nicotine was measured using a 2 hr. incubation at 4° C. […] Nonspecific binding was determined by inclusion of 10 μM nonradioactive nicotine in the incubations. The inhibition of L-[^3 H] nicotine binding by test compounds was determined by including one of eight different concentrations of the test compound in the incubation. […] Inhibition constants (Ki values) were calculated from the IC50 values using the method of Cheng, et al., Biochem. Pharmacol., Vol. 22, pp. 3099-3108 (1973).

[1] = test system: synaptosomes from the striatal area of rat brain; experiment: Dopamine release from striatal synaptosomes of rat brain; type: cell-based, rat (Sprague-Dawley); settings: read-out: Dopamine Release (percent release relative to S(-)nicotine)
Procedure: Dopamine release was measured by preparing synaptosomes from the striatal area of rat brain generally obtained from Sprague-Dawley rats according to the procedures set forth by Nagy, et al., J. Neurochem., Vol. 43, pp. 1114-1123 (1984). Striata from 4 rats were homogenized in 2 ml of 0.32M sucrose buffered with 5 mM HEPES (pH 7.5), using a glass-teflon tissue grinder. The homogenate was diluted to 5 ml with additional homogenization solution and centrifuged at 1000×g for 10 min. This procedure was repeated on the new pellet and the resulting supernatant was centrifuged at 12,000×g for 20 min. […] Using this method, 30 to 90 percent of the dopamine was taken up into the synaptosomes, as determined by scintillation counting following filtration through glass fiber filters soaked with 0.5 percent polyethyleneimine. […] After the addition of a 0.2 ml of a 20 μM solution of ligand, the perfusate was collected into scintillation vials at 1 min. intervals and the dopamine released was quantified by scintillation counting. Peaks of radioactivity released above background were summed and the average basal release during that time was subtracted from the total. Release was expressed as a percentage of release obtained with an equal concentration of S(-)nicotine.

Compound	Ki (nicotinic receptors)	Emax [1]
CC(=O)C1=CCC2CCC1N2 (stereo not shown) [Norferruginine, norferruginine]	1.1 ± 0.3 µM	25%
CC(=O)C1=CCC2CCC1N2C (stereo not shown) [Ferruginine, ferruginine]	3.1 ± 0.5 µM	15%
